Literature values as cited in patent publication US20020160936A1, “HCV E2 PROTEIN BINDING AGENTS FOR TREATMENT OF HEPATITIS C VIRUS INFECTION” (priority 1999, published 2002).

Test system: hepatitis C virus
Conditions: subjects with chronic hepatitis C

interferon-alpha
long-term cure rate: less than 10%
